{"source": "patent US11466007B2", "about": "“Substituted lactams showing serotonin 5-HT receptor activity” (Sumitomo Pharma Co., Ltd., priority 2018, dated 2022)"}
{"experiment": "Test 4: metabolic stability test in human hepatic microsome", "format": "in vitro ADME", "settings": "0.1 mg/mL microsome, 0.1 μmol/L compound, NADPH, 37° C., 30 minutes", "description": "Test 4: Metabolic Stability Test in Human Hepatic Microsome\nThe stability of the present compound in human hepatic microsome metabolism was evaluated as mentioned below. Human hepatic microsome was obtained from Xenontech. Human hepatic microsome, NADPH, and each test compound were mixed in 25 mmol/L phosphate buffer solution (pH 7.4) to reach the following concentrations as shown below, and the mixture was incubated at 37° C. for 30 minutes. • Human hepatic microsome: 0.1 mg/mL • NAPDH: 3.2 mmol/L • Test compound: 0.1 μmol/L\nThe residual ratio of the test compound in each sample after 30 minutes was measured by LC-MS, and the metabolic stability in human hepatic microsome was calculated from the following formula. Metabolic stability in human hepatic microsome (mL/min/mg protein)=−LN(residual ratio)/30/0.1", "units": {"Metabolic stability in human hepatic microsome": "mL/min/mg protein"}}
{"compound": "Cc1ccc2c(n1)C(=O)N(CCN1CCN(c3noc4ccccc34)CC1)CC2", "note": "[Example 183]", "Metabolic stability in human hepatic microsome": "<0.05"}
{"compound": "Cn1cc2c(n1)CCN(CCN1CCC(c3noc4ccccc34)CC1)C2=O", "note": "[Example 17]", "Metabolic stability in human hepatic microsome": "<0.01"}
{"compound": "O=C1c2cn[nH]c2CCN1CCN1CCC(c2noc3ccccc23)CC1", "note": "[Example 189, 5-{2-[4-(1,2-Benzoisoxazol-3-yl)piperidin-1-yl]ethyl}-1,5,6,7-tetrahydro-4H-pyrazolo[4,3-c]pyridin-4-one]", "Metabolic stability in human hepatic microsome": "<0.05"}
{"compound": "Cn1cnc2c1CCN(CCN1CCC(c3noc4ccccc34)CC1)C2=O", "note": "[Example 16]", "Metabolic stability in human hepatic microsome": "<0.01"}
{"compound": "O=C1c2cnn(C3CC3)c2CCN1CCN1CCN(c2nsc3ccccc23)CC1", "note": "[Example 160]", "Metabolic stability in human hepatic microsome": 0.13}
{"compound": "Cn1ccc2c1CCN(CCN1CCN(c3noc4ccccc34)CC1)C2=O", "note": "[Example 170]", "Metabolic stability in human hepatic microsome": "<0.05"}
{"compound": "O=C1c2cnn(C3CC3)c2CCN1CCN1CCC(c2noc3ccccc23)CC1", "note": "[Example 161]", "Metabolic stability in human hepatic microsome": "<0.05"}
{"compound": "Cc1cncc2c1CCN(CCN1CCC(c3noc4ccccc34)CC1)C2=O", "note": "[Example 138]", "Metabolic stability in human hepatic microsome": 0.083}
{"compound": "Cn1cc2c(n1)CCCN(CCN1CCN(c3nsc4ccccc34)CC1)C2=O", "note": "[Example 42]", "Metabolic stability in human hepatic microsome": 0.100}
{"compound": "Cc1cc2ccn(CCN3CCN(c4noc5ccccc45)CC3)c(=O)c2cn1", "note": "[Example 113, 2-{2-[4-(1,2-Benzoisoxazol-3-yl)piperazin-1-yl]ethyl}-6-methyl-2,7-naphthyridin-1(2H)-one]", "Metabolic stability in human hepatic microsome": 0.079}
{"compound": "Cc1nc2c(o1)CCCN(CCN1CCN(c3nsc4ccccc34)CC1)C2=O", "note": "[Example 52]", "Metabolic stability in human hepatic microsome": 0.043}
{"compound": "O=C1c2oc(C3CC3)nc2CCN1CCN1CCC(c2noc3ccccc23)CC1", "note": "[Example 68]", "Metabolic stability in human hepatic microsome": 0.056}
{"compound": "Cc1n[nH]c2c1C(=O)N(CCN1CCC(c3noc4ccccc34)CC1)CC2", "note": "[Example 99, 5-{2-[4-(1,2-Benzoisoxazol-3-yl)piperidin-1-yl]ethyl}-3-methyl-1,5,6,7-tetrahydro-4H-pyrazolo[4,3-c]pyridin-4-one]", "Metabolic stability in human hepatic microsome": "<0.01"}
{"compound": "O=C1c2ncccc2CCN1CCN1CCN(c2noc3ccccc23)CC1", "note": "[Example 1, 7-{2-[4-(1,2-Benzoisoxazol-3-yl)piperazin-1-yl]ethyl}-6,7-dihydro-1,7-naphthyridin-8(5H)-one]", "Metabolic stability in human hepatic microsome": "<0.01"}
{"compound": "Cc1nc2c(o1)C(=O)N(CCN1CCN(c3nsc4ccccc34)CC1)CCC2", "note": "[Example 46]", "Metabolic stability in human hepatic microsome": 0.018}
{"compound": "Cn1cc2c(n1)C(=O)N(CCN1CCC(c3noc4ccccc34)CC1)CCC2", "note": "[Example 48]", "Metabolic stability in human hepatic microsome": "<0.01"}
{"compound": "O=c1c2cccnc2ccn1CCN1CCN(c2noc3ccccc23)CC1", "note": "[Example 115]", "Metabolic stability in human hepatic microsome": "<0.05"}
{"compound": "Cc1nc(C)c2c(n1)CCN(CCN1CCC(c3noc4ccccc34)CC1)C2=O", "note": "[Example 139]", "Metabolic stability in human hepatic microsome": "<0.05"}
{"compound": "Cc1nccc2c1C(=O)N(CCN1CCN(c3noc4ccccc34)CC1)CC2", "note": "[Example 85]", "Metabolic stability in human hepatic microsome": 0.046}
{"compound": "CC1CN(CCN2CCC(c3noc4ccccc34)CC2)C(=O)c2ccn(C)c21", "note": "(centres unmarked) [Example 82]", "Metabolic stability in human hepatic microsome": 0.072}
{"compound": "O=C1c2occc2CCN1CCN1CCC(c2noc3ccccc23)CC1", "note": "[Example 127]", "Metabolic stability in human hepatic microsome": "<0.05"}
{"compound": "O=C1c2ncccc2CCN1CCN1CCN(c2noc3cc(F)ccc23)CC1", "note": "[Example 123]", "Metabolic stability in human hepatic microsome": "<0.05"}
{"compound": "O=C1c2ncccc2CCN1CCN1CCN(c2nsc3cc(F)ccc23)CC1", "note": "[Example 27]", "Metabolic stability in human hepatic microsome": 0.048}
{"compound": "Cn1cc2c(n1)CCCN(CCN1CCC(c3noc4ccccc34)CC1)C2=O", "note": "[Example 41]", "Metabolic stability in human hepatic microsome": "<0.01"}
{"compound": "Cn1cnc2c1C(=O)N(CCN1CCC(c3noc4ccccc34)CC1)CC2", "note": "[Example 133]", "Metabolic stability in human hepatic microsome": "<0.05"}
{"compound": "O=C1c2cccnc2CCN1CCN1CCN(c2noc3ccccc23)CC1", "note": "[Example 153, 6-{2-[4-(1,2-Benzoisoxazol-3-yl)piperazin-1-yl]ethyl}-7,8-dihydro-1,6-naphthyridin-5(6H)-one]", "Metabolic stability in human hepatic microsome": "<0.05"}
{"compound": "Cn1ncc2c1CCN(CCN1CCN(c3nsc4ccccc34)CC1)C2=O", "note": "[Example 63]", "Metabolic stability in human hepatic microsome": "<0.01"}
{"compound": "O=C1c2ncccc2CCN1CCN1CCC(c2noc3cc(F)ccc23)CC1", "note": "[Example 125]", "Metabolic stability in human hepatic microsome": "<0.05"}
{"compound": "O=C1c2cccnc2CCN1CCN1CCC(c2noc3cc(F)ccc23)CC1", "note": "[Example 121]", "Metabolic stability in human hepatic microsome": "<0.05"}
{"compound": "[2H]C([2H])([2H])Oc1cc2c(cn1)C(=O)N(CCN1CCN(c3nsc4ccccc34)CC1)CC2([2H])[2H]", "note": "[Example 107, 2-{2-[4-(1,2-Benzoisothiazol-3-yl)piperazin-1-yl]ethyl}-6-[(^2H3)methyloxy](4,4-^2H2)-3,4-dihydro-2,7-naphthyridin-1(2H)-one]", "Metabolic stability in human hepatic microsome": 0.210}
{"compound": "Cn1ncc2c1CCC(CCN1CCN(c3nsc4ccccc34)CC1)C2=O", "note": "(centres unmarked) [Example 29]", "Metabolic stability in human hepatic microsome": 0.063}
{"compound": "Cc1nc2c(o1)CCN(CCN1CCN(c3nsc4ccccc34)CC1)C2=O", "note": "[Example 51]", "Metabolic stability in human hepatic microsome": 0.074}
{"compound": "Cc1cc2c(C3CCN(CCN4CCc5cccnc5C4=O)CC3)noc2cc1F", "note": "[Example 6]", "Metabolic stability in human hepatic microsome": 0.061}
{"compound": "CC1CN(CCN2CCC(c3noc4ccccc34)CC2)C(=O)c2ncccc21", "note": "(centres unmarked) [Example 15]", "Metabolic stability in human hepatic microsome": 0.055}
{"compound": "O=C1c2cn[nH]c2CCCN1CCN1CCC(c2noc3ccccc23)CC1", "note": "[Example 97, 5-{2-[4-(1,2-Benzoisoxazol-3-yl)piperidin-1-yl]ethyl}-5,6,7,8-tetrahydropyrazolo[4,3-c]azepin-4(1H)-one]", "Metabolic stability in human hepatic microsome": "<0.01"}
{"compound": "O=c1c2ncccc2ccn1CCN1CCN(c2nsc3ccccc23)CC1", "note": "[Example 8]", "Metabolic stability in human hepatic microsome": 0.064}
{"compound": "O=C1c2ncccc2CCN1CCN1CCC(c2noc3ccc(F)cc23)CC1", "note": "[Example 5]", "Metabolic stability in human hepatic microsome": "<0.01"}
{"compound": "Cn1ncc2c1CCCN(CCN1CCN(c3noc4ccccc34)CC1)C2=O", "note": "[Example 80]", "Metabolic stability in human hepatic microsome": 0.012}
{"compound": "Cn1ncc2c1CCN(CCN1CCC(c3noc4ccccc34)CC1)C2=O", "note": "[Example 130]", "Metabolic stability in human hepatic microsome": "<0.05"}
{"compound": "Cn1ncc2c1CCC(CCN1CCC(c3noc4ccccc34)CC1)C2=O", "note": "(centres unmarked) [Example 28]", "Metabolic stability in human hepatic microsome": 0.017}
{"compound": "CC(C)n1ncc2c1CCN(CCN1CCC(c3noc4ccccc34)CC1)C2=O", "note": "[Example 159]", "Metabolic stability in human hepatic microsome": "<0.05"}
{"compound": "O=C1c2nc(Cl)ccc2CCN1CCN1CCN(c2noc3ccccc23)CC1", "note": "[Example 144]", "Metabolic stability in human hepatic microsome": "<0.05"}
{"compound": "Cc1c2c(nn1C)CCN(CCN1CCN(c3noc4ccccc34)CC1)C2=O", "note": "[Example 171]", "Metabolic stability in human hepatic microsome": "<0.05"}
{"compound": "Cc1nc2c(o1)CCN(CCN1CCC(c3noc4ccccc34)CC1)C2=O", "note": "[Example 39]", "Metabolic stability in human hepatic microsome": 0.016}
{"compound": "COc1ncc2c(n1)CCN(CCN1CCN(c3nsc4ccccc34)CC1)C2=O", "note": "[Example 177]", "Metabolic stability in human hepatic microsome": 0.095}
{"compound": "O=C1c2ncccc2CCC1CCN1CCC(c2noc3ccccc23)CC1", "note": "(centres unmarked) [Example 24]", "Metabolic stability in human hepatic microsome": 0.018}
{"compound": "Cc1cc2c(n1C)CCCN(CCN1CCC(c3noc4ccccc34)CC1)C2=O", "note": "[Example 166]", "Metabolic stability in human hepatic microsome": "<0.05"}
{"compound": "Cc1noc2c1C(=O)N(CCN1CCN(c3noc4ccccc34)CC1)CC2", "note": "[Example 32, 5-{2-[4-(1,2-Benzoisoxazol-3-yl)piperazin-1-yl]ethyl}-3-methyl-6,7-dihydro[1,2]oxazolo[4,5-c]pyridin-4(5H)-one]", "Metabolic stability in human hepatic microsome": "<0.01"}
{"compound": "O=c1c2cnccc2ccn1CCN1CCN(c2noc3ccccc23)CC1", "note": "[Example 116]", "Metabolic stability in human hepatic microsome": 0.1}
{"compound": "Cn1ncc2c1CCN(CCN1CCN(c3noc4ccccc34)CC1)C2=O", "note": "[Example 131]", "Metabolic stability in human hepatic microsome": "<0.05"}
{"compound": "O=c1c2cncnc2ccn1CCN1CCC(c2noc3ccccc23)CC1", "note": "[Example 129]", "Metabolic stability in human hepatic microsome": 0.084}
{"compound": "COc1cc2c(cn1)C(=O)N(CCN1CCN(c3nsc4ccccc34)CC1)CC2", "note": "[Example 2, 2-{2-[4-(1,2-Benzoisothiazol-3-yl)piperazin-1-yl]ethyl}-6-methoxy-3,4-dihydro-2,7-naphthyridin-1(2H)-one]", "Metabolic stability in human hepatic microsome": 0.22}
{"compound": "Cn1ccc2c1CCN(CCN1CCN(c3nsc4ccccc34)CC1)C2=O", "note": "[Example 61]", "Metabolic stability in human hepatic microsome": 0.056}
{"compound": "Cc1ccc2c(n1)C(=O)N(CCN1CCC(c3noc4ccccc34)CC1)CC2", "note": "[Example 184]", "Metabolic stability in human hepatic microsome": "<0.05"}
{"compound": "Cn1cc2c(n1)C(=O)N(CCN1CCN(c3nsc4ccccc34)CC1)CCC2", "note": "[Example 49]", "Metabolic stability in human hepatic microsome": 0.063}
{"compound": "O=C1c2ncccc2CCN1CCN1CCC(c2nsc3ccccc23)CC1", "note": "[Example 26]", "Metabolic stability in human hepatic microsome": "<0.01"}
